These results are taken from US7393662B2, “Human EPO mimetic hinge core mimetibodies, compositions, methods and uses” (Centocor, Inc., priority 2004, dated 2008).

In series [1] the test system is EPO dependent UT-7/EPO cell line. The series can be described thus: in vitro bioactivity (cell proliferation/viability, MTS) assay in EPO dependent UT-7/EPO cells. Type of series: cell-based, human. Conditions: for activity/potency, fold greater than the EMP-1 peptide: viability 48 hours after treatment, molar basis; for activity compared with rHuEPO: in vitro cell proliferation assay. Here is the method:
The activity of EMP-Hinge core mimetibody was first tested in an in vitro bioactivity assay. For this assay, the EPO dependent UT-7/EPO cell line, derived from a patient with acute megakaryoblastic leukemia, was used (Komatsu et al., 1993, Blood, vol. 82 (2), 456-464). These cells undergo programmed cell death 48 to 72 hours after withdraw from media supplemented with rHuEPO. Cells that have been incubated in the absence of rHuEPO for 24 hours can be saved if treated with rHuEPO or an EPO agonist. EMP-Hinge core mimetibody was added to cells starved without rHuEPO and cell viability was determined 48 hours after treatment using the tetrazolium compound MTS (CellTiter 96 Aqueous One Solution, Promega) that is metabolized by living cells to yield a product with an absorbance that can be measured. […] In addition, these same cells were stimulated with EMP-Hinge core mimetibody and tyrosine phosphorylation patterns visualized by running cell lysate through a polyacrylamide gel.

The test system of series [2] is cells that express the EPO receptor. The series can be described thus: complement lysis of cells that express the EPO receptor (immune effector function). Type of series: cell-based. An excerpt:
It has been shown that mutation of two […] (L) residues, L234 & L235, in the IgG1 lower hinge region to alanine (A) will abrogate the ability of the immunoglobulin to mediate complement dependent cytotoxicity (CDC) and antibody dependant cellular cytotoxicity (ADCC) (Hezereh et al., 2001, J. Virol., vol. 75 (24), 12161-68). […] This may be due to the low number of receptors that are found on erythroid progenitor cells.

In another series the test system is normal mice. The series can be described thus: in vivo effects on erythropoiesis (hematocrit) in normal mice. Conditions: for duration of response (elevated hematocrit) compared with rHuEPO / maximal hematocrit / maximal response compared with rHuEPO: normal mice, equal activity units / dosed equally. An excerpt: A specific, non-limiting, example of this invention is the EMP-hinge core mimetibody construct where V is the first several N-terminal amino acids of a naturally occurring HC or LC antibody, P is a single copy of the bioactive EMP-1 peptide and L is a tandem repeat of either Gly-Ser or Gly-Gly-Gly-Ser flexible linker, H is a hinge core region and CH2 & CH3 are of the IgG1 or IgG4 isotype subclass. It is thought that this structure will constrain the EMP-1 peptide, but allow sufficient flexibility such that the dimerization of the peptides as part of the assembled homodimer is stabilized. […] This construct is efficiently secreted from cells and appears to be properly folded; overcoming problems associated with 1st generation mimetibodies.
(§1) In vivo studies were done in normal mice to compare the half-life of EMP-Hinge core mimetibody to that of rHuEPO and to compare their effects on erythropoiesis.

Series [3] in a line: serum concentration by ELISA / half-life in normal mice. The conditions noted are these: serum concentrations by ELISA. It counts as in vivo. Here is the method:
as §1
The serum concentrations of both rHuEPO and EMP-Hinge core mimetibody were measured by ELISA.

For series [4] the following is noted: in 50% serum; cited from earlier work.
The next series deals with T1, EPO receptor (Homo sapiens, UniProt P19235).
T1 sequence (P19235 25-508): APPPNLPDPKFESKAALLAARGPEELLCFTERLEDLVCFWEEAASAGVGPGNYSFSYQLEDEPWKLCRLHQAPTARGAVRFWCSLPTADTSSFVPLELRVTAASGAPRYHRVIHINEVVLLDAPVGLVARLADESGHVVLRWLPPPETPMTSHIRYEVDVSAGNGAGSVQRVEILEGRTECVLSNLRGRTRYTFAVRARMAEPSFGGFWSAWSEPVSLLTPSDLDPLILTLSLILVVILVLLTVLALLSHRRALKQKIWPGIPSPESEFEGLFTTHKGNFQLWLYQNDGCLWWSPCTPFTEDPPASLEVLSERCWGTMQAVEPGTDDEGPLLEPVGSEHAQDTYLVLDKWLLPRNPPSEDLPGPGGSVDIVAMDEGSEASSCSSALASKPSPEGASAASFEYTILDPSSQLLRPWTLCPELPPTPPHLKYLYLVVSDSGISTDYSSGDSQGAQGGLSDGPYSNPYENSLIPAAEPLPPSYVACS
Conditions: cited from earlier work.

For series [5] the following is noted: cited from earlier work.
Setting [6] is: listed as EMP-Hinge core mimetibody.

As to “EMP-hinge core mimetibody: V (QIQ)-EMP-1 peptide-GS or GGGS linker-hinge core CPPCP-CH2-CH3 of IgG1 or IgG4; assembled homodimer”, the “potency, fold less than rHuEPO” value in series [1] (UT-7/EPO cells, on a molar basis) worked out at 5 fold. In addition, the “activity/potency, fold greater than the EMP-1 peptide” value in series [1] (UT-7/EPO cells) is “more than 500 fold”; in series [1] (UT-7/EPO cells, listed as EMP-Hinge core mimetibody), 500 fold. In addition, the “activity compared with rHuEPO” value in series [1] is on record as “substantially similar”; in series [1] (setting [6]), “in the range of rHuEPO”. Further, the “effector function associated effects” value in series [2] is on record as “no effector function associated affects have been observed”. In addition, the “complement lysis of cells that express the EPO receptor” value in series [2] (preliminary studies) is recorded as “does not mediate complement lysis”. Moreover, in the series with normal mice (in vivo), the “change in hematocrit (in vivo expansion of erythroid progenitors)” value was “significant increases in hematocrit”. Also, the “duration of response (elevated hematocrit) compared with rHuEPO” value in the series on normal mice is recorded as “elevated levels are maintained for a longer period”; in the series on normal mice (setting [6]), “prolonged”. The entries for the “maximal hematocrit / maximal response compared with rHuEPO” value with normal mice and with normal mice (setting [6]) were “significantly higher” and “higher maximal response”, respectively. The “approximate half-life relative to rHuEPO” value in series [3] is given as “at least several times”.

GGTYSCHFGPLTWVCKPQGG [EMP-1]: in series [4], the ex-vivo half-life is 8 h. Moreover, the “activity, fold less than HuEPO” value with EPO receptor is 10,000 to 100,000 fold.

Regarding “erythropoietin: glycoprotein hormone of 165 amino acids and four carbohydrate chains, primary regulator of erythropoiesis”, in series [5] (after subcutaneous administration), the “time at which peak serum levels are achieved” value is 5 to 24 h. Further, in series [5] (intravenously administered, patients with CRF), the circulating half-life is 3 to 4 h. In addition, the “detectable levels of plasma erythropoietin maintained” value in series [5] (within the therapeutic dose range) is given as “at least 24 hours”.
